Test system: HEK293T cells
Assay: Metabolic conversion and uptake of 2-hydroxylated fatty acids in HEK293T cell cultures
Assay type: in vitro ADME, human
Experimental: To describe the metabolic conversion of DHA-H to HPA(C21:5 ω-3), as well as the conversion of LA-H to HDA (C17:2 ω-6), ALA-H to HTA ω-3 (C17:3 ω-3), GLA-H to HTA ω-6 (C17:3 ω-6), ARA-H to NTA (C19:4 ω-6), EPA-H to NPA (C19:5 ω-3), HEK293T (Human Embryonic Kidney Cells 293T) cell cultures were employed, which is an embryonic, non-tumoral cell line, widely used in human metabolism studies under physiological conditions.
HEK293T cells were cultured in Dulbecco's Modified Eagle's Medium (DMEM; Dubelcco's Modified Eagle's Medium, Biowest, France), supplemented with 10% FBS (Fetal Bovine Serum; Gibco, Thermo-Fisher), 2 mM L-Gln, 25 mM D(+)-glucose, 1 mM sodium pyruvate, and penicillin/streptomycin. Mouse neuroblastoma N2a cells were maintained in a 1:1 (v:v) mixture of DMEM and Opti-Mem (Gibco, Thermo-Fisher), supplemented with 5% FBS and penicillin/streptomycin. Both cell lines were incubated in an atmosphere of 5% CO2 at 37° C.
HEK293T cells were incubated with DHA-H and DHA at 10, 30 and 100 μM for 24 hours, and at 30 μM for 6, 48 and 72 hours. These cells were also incubated with LA-H, ALA-H, GLA-H, ARA-H and EPA-H at 100 μM for 24 hours. HEK293T cells were also incubated with oxythiamine in the presence of DHA-H under the same conditions, at final oxythiamine concentrations of 1 and 10 mM. The HEK293T cells were separated from the plates by pipettes with cold phosphate buffer saline solution (PBS). Cells were recovered by centrifugation (1000 xg, 10 min at 4° C.) and washed twice with cold PBS before being frozen at −80° C. To analyze DHA-H and DHA levels in the cell culture medium, 90 mm diameter plates were filled with 11 mL of complete cell culture medium containing 30 μM DHA-H or DHA in the presence or absence of attached HEK293T cells (5.10^5 cells/plate). The plates were incubated as described above and 1 ml aliquots of the plates were collected at 0, 6, 24, 48 and 72 hours. Aliquots of the cell culture medium were immediately centrifuged at 1000×g for 10 min at 4° C. to remove any cell suspension and the cell-free aliquots were stored at -20° C.
The cell lysates were subjected to ultrasound pulses (4 cycles, 10 s/cycle, 10 W) before lipid extraction. For brain analysis, the tissue of each animal was homogenized in cold PBS at 1:10 (p:v) in the presence of protease inhibitors (Roche), using a blade homogenizer (Polytron PT3100). Homogenates were ultrasounded, aliquots were made and stored at −80 ° C. Only one aliquot of each sample, containing about 8 mg protein/aliquot, was subjected to lipid extraction. Protein content before lipid extraction was determined by a modified Lowry method (Bio-rad DC Protein Assay).
Margaric acid (C17:0) was added to the samples subjected to lipid extraction as an internal standard and the lipids were extracted with chloroform:methanol (Eggers and Schwudke, 2016). Briefly, 0.75 volumes of the aqueous phase (which already contained the biological sample) were mixed with 2 volumes of chloroform and 1 volume of methanol. This mixture was vortexed for 1 minute and centrifuged at 1000×g for 10 minutes. The lower organic phase was collected and washed with 1 ml of PBS:methanol (1:1,v:v), and the resulting organic phase was dried under argon flow. The film containing the extracted lipids was transmethylated by incubation of the lipid mixture for 90 minutes at 100° C. in 3 ml of methanol:acetyl chloride (10:1, v:v), under an argon atmosphere (Christie, 1993). The resulting fatty acid methyl esters (FAMEs) were extracted with hexane, adding 3 ml of H2O and 1 ml of hexane to the transmethylation reaction, and vortexing the mixture thoroughly. After centrifugation at room temperature (1000×g for 10 min), the upper phase containing the FAMEs was collected and the remaining volume was washed twice with 1 ml of hexane.

Structure (SMILES) | Levels in the culture medium in the absence of cell culture (30 μM, up to 72 h, no cells) | Intracellular HPA levels compared to DHA-H levels (HEK293T under DHA-H, from 24 hours of incubation and 30 μM) | Formation of the metabolite from its 2-hydroxylated prodrug in the presence of oxythiamine (HEK293T, prodrug 100 μM, 24 h, 10 mM oxythiamine)
CCC=CCC=CCC=CCC=CCC=CCC=CCC(O)C(=O)O (stereo not drawn) [DHA-H, 2-hydroxy-drocosahexaenoic acid] | remained constant over time |  | 
CC/C=C\C/C=C\C/C=C\C/C=C\C/C=C\CCCCC(=O)O [HPA, (6Z,9Z,12Z,15Z,18Z)-heneicosa-6,9,12,15,18-pentaenoic acid] |  | significantly higher than those of the prodrug | inhibited
